Reference: patent US8680012B2, “4-phenyl-pyrane-3,5-diones,4-phenyl-thiopyrane-3,6-diones and cyclohexanetriones as novel herbicides” (Syngenta Crop Protection LLC, priority 2006, dated 2014)

What was measured:
Format in all cases: in vivo
[1] = tested on: Alopecurus myosuroides (ALOMY); experiment: Example B pre-emergence herbicidal activity, glasshouse pot test; conditions: 312 h, rate 250 g/ha, evaluated after 13 days, read-out: Pre-emergence activity ALOMY (100=total damage to plant; 0=no damage to plant)
Protocol: (§1) Seeds of a variety of test species were sown in standard soil in pots. After cultivation for one day (pre-emergence) or after 8 days cultivation (post-emergence) under controlled conditions in a glasshouse (at 24/16° C., day/night; 14 hours light; 65% humidity), the plants were sprayed with an aqueous spray solution derived from the formulation of the technical active ingredient in acetone/water (50:50) solution containing 0.5% Tween 20 (polyoxyethelyene sorbitan monolaurate, CAS RN 9005-64-5). The test plants were then grown in a glasshouse under controlled conditions in a glasshouse (at 24/16° C., day/night; 14 hours light; 65% humidity) and watered twice daily. After 13 days for pre and post-emergence, the test was evaluated (100=total damage to plant; 0=no damage to plant).
(§2) Alopecurus myosuroides (ALOMY), Avena fatua (AVEFA), Setaria faberi (SETFA), Echinochloa crus-galli (ECHCG), Solanum nigrum (SOLNI) and Amaranthus retroflexus (AMARE)

[2] = tested on: Amaranthus retroflexus (AMARE); experiment: as above; conditions: 312 h, rate 250 g/ha, evaluated after 13 days, read-out: Pre-emergence activity AMARE (100=total damage to plant; 0=no damage to plant)
Protocol: as §1, §2

Avena fatua (AVEFA) [3] = experiment: as above; conditions: 312 h, rate 250 g/ha, evaluated after 13 days, read-out: Pre-emergence activity AVEFA (100=total damage to plant; 0=no damage to plant)
Protocol: as §1, §2

[4] = tested on: Echinochloa crus-galli (ECHCG); experiment: as above; conditions: 312 h, rate 250 g/ha, evaluated after 13 days, read-out: Pre-emergence activity ECHCG (100=total damage to plant; 0=no damage to plant)
Protocol: as §1, §2

Setaria faberi (SETFA) [5] = experiment: as above; conditions: 312 h, rate 250 g/ha, evaluated after 13 days, read-out: Pre-emergence activity SETFA (100=total damage to plant; 0=no damage to plant)
Protocol: as §1, §2

[6] = tested on: Alopecurus myosuroides (ALOMY); experiment: Example B post-emergence herbicidal activity, glasshouse pot test; conditions: 312 h, rate 250 g/ha, evaluated after 13 days, read-out: Post-emergence activity ALOMY (100=total damage to plant; 0=no damage to plant)
Protocol: as §1, §2

[7] = tested on: Amaranthus retroflexus (AMARE); experiment: as above; conditions: 312 h, rate 250 g/ha, evaluated after 13 days, read-out: Post-emergence activity AMARE (100=total damage to plant; 0=no damage to plant)
Protocol: as §1, §2

Avena fatua (AVEFA) [8] = experiment: as above; conditions: 312 h, rate 250 g/ha, evaluated after 13 days, read-out: Post-emergence activity AVEFA (100=total damage to plant; 0=no damage to plant)
Protocol: as §1, §2

[9] = tested on: Echinochloa crus-galli (ECHCG); experiment: as above; conditions: 312 h, rate 250 g/ha, evaluated after 13 days, read-out: Post-emergence activity ECHCG (100=total damage to plant; 0=no damage to plant)
Protocol: as §1, §2

Setaria faberi (SETFA) [10] = experiment: as above; conditions: 312 h, rate 250 g/ha, evaluated after 13 days, read-out: Post-emergence activity SETFA (100=total damage to plant; 0=no damage to plant)
Protocol: as §1, §2

CCc1ccc(-c2ccc(OC(F)F)cc2)cc1C1=C(O)C(C)(C)OC(C)(C)C1=O [Compound A-151]
pest or weed control at 250 g/ha [1]: 100%
pest or weed control at 250 g/ha [2]: 0%
pest or weed control at 250 g/ha (Avena fatua (AVEFA) [3]): 100%
pest or weed control at 250 g/ha [4]: 100%
pest or weed control at 250 g/ha (Setaria faberi (SETFA) [5]): 100%
pest or weed control at 250 g/ha [6]: 100%
pest or weed control at 250 g/ha [7]: 0%
pest or weed control at 250 g/ha (Avena fatua (AVEFA) [8]): 100%
pest or weed control at 250 g/ha [9]: 100%
pest or weed control at 250 g/ha (Setaria faberi (SETFA) [10]): 100%

CCc1ccc(-c2ccc(Cl)c(C#N)c2)cc1C1=C(O)C(C)(C)OC(C)(C)C1=O [Compound A-69]
pest or weed control at 250 g/ha [1]: 0%
pest or weed control at 250 g/ha [2]: 0%
pest or weed control at 250 g/ha (Avena fatua (AVEFA) [3]): 0%
pest or weed control at 250 g/ha [4]: 60%
pest or weed control at 250 g/ha (Setaria faberi (SETFA) [5]): 80%
pest or weed control at 250 g/ha [6]: 70%
pest or weed control at 250 g/ha [7]: 90%
pest or weed control at 250 g/ha (Avena fatua (AVEFA) [8]): 90%
pest or weed control at 250 g/ha [9]: 100%
pest or weed control at 250 g/ha (Setaria faberi (SETFA) [10]): 100%

CCC(=O)OC1=C(c2cc(-c3ccc(Cl)cc3Cl)ccc2CC)C(=O)C(C)(C)OC1(C)C [Compound D-25]
pest or weed control at 250 g/ha [1]: 20%
pest or weed control at 250 g/ha [2]: 0%
pest or weed control at 250 g/ha (Avena fatua (AVEFA) [3]): 0%
pest or weed control at 250 g/ha [4]: 90%
pest or weed control at 250 g/ha (Setaria faberi (SETFA) [5]): 90%
pest or weed control at 250 g/ha [6]: 0%
pest or weed control at 250 g/ha [7]: 0%
pest or weed control at 250 g/ha (Avena fatua (AVEFA) [8]): 20%
pest or weed control at 250 g/ha [9]: 90%
pest or weed control at 250 g/ha (Setaria faberi (SETFA) [10]): 90%

CCOc1ccc(-c2ccc(Cl)cc2F)cc1C1=C(O)C(C)(C)OC(C)(C)C1=O [Compound A-88]
pest or weed control at 250 g/ha [1]: 0%
pest or weed control at 250 g/ha [2]: 0%
pest or weed control at 250 g/ha (Avena fatua (AVEFA) [3]): 10%
pest or weed control at 250 g/ha [4]: 0%
pest or weed control at 250 g/ha (Setaria faberi (SETFA) [5]): 0%
pest or weed control at 250 g/ha [6]: 50%
pest or weed control at 250 g/ha [7]: 0%
pest or weed control at 250 g/ha (Avena fatua (AVEFA) [8]): 10%
pest or weed control at 250 g/ha [9]: 90%
pest or weed control at 250 g/ha (Setaria faberi (SETFA) [10]): 90%

CCc1ccc(-c2ccc(Cl)cc2Cl)cc1C1=C(OC(C)=O)C(C)(C)OC(C)(C)C1=O [Compound D-23]
pest or weed control at 250 g/ha [1]: 0%
pest or weed control at 250 g/ha [2]: 0%
pest or weed control at 250 g/ha (Avena fatua (AVEFA) [3]): 0%
pest or weed control at 250 g/ha [4]: 100%
pest or weed control at 250 g/ha (Setaria faberi (SETFA) [5]): 90%
pest or weed control at 250 g/ha [6]: 0%
pest or weed control at 250 g/ha [7]: 0%
pest or weed control at 250 g/ha (Avena fatua (AVEFA) [8]): 0%
pest or weed control at 250 g/ha [9]: 100%
pest or weed control at 250 g/ha (Setaria faberi (SETFA) [10]): 90%

CCc1ccc(-c2ccc(Cl)cc2)cc1C1=C(O)[C@@]2(CC)C=C[C@H](O2)C1=O [Compound A-63]
pest or weed control at 250 g/ha [1]: 0%
pest or weed control at 250 g/ha [2]: 0%
pest or weed control at 250 g/ha (Avena fatua (AVEFA) [3]): 0%
pest or weed control at 250 g/ha [4]: 0%
pest or weed control at 250 g/ha (Setaria faberi (SETFA) [5]): 30%
pest or weed control at 250 g/ha [6]: 90%
pest or weed control at 250 g/ha [7]: 0%
pest or weed control at 250 g/ha (Avena fatua (AVEFA) [8]): 60%
pest or weed control at 250 g/ha [9]: 100%
pest or weed control at 250 g/ha (Setaria faberi (SETFA) [10]): 100%

CCc1ccc(-c2ccc(Cl)cc2Cl)cc1C1=C(O)[C@]2(C)O[C@@H](CC2COC)C1=O (some centres unmarked) [Compound A-133]
pest or weed control at 250 g/ha [1]: 10%
pest or weed control at 250 g/ha [2]: 0%
pest or weed control at 250 g/ha (Avena fatua (AVEFA) [3]): 70%
pest or weed control at 250 g/ha [4]: 0%
pest or weed control at 250 g/ha (Setaria faberi (SETFA) [5]): 80%
pest or weed control at 250 g/ha [6]: 20%
pest or weed control at 250 g/ha [7]: 70%
pest or weed control at 250 g/ha (Avena fatua (AVEFA) [8]): 80%
pest or weed control at 250 g/ha [9]: 100%
pest or weed control at 250 g/ha (Setaria faberi (SETFA) [10]): 100%

Cc1ccc(-c2cc[n+]([O-])cc2)cc1C1=C(O)C(C)(C)OC(C)(C)C1=O [Compound A-105]
pest or weed control at 250 g/ha [1]: 0%
pest or weed control at 250 g/ha [2]: 0%
pest or weed control at 250 g/ha (Avena fatua (AVEFA) [3]): 0%
pest or weed control at 250 g/ha [4]: 0%
pest or weed control at 250 g/ha (Setaria faberi (SETFA) [5]): 0%

Cc1ccc(-c2cnc(N)nc2)cc1C1=C(O)C(C)(C)OC(C)(C)C1=O [Compound A-104]
pest or weed control at 250 g/ha [1]: 0%
pest or weed control at 250 g/ha [2]: 0%
pest or weed control at 250 g/ha (Avena fatua (AVEFA) [3]): 0%
pest or weed control at 250 g/ha [4]: 0%
pest or weed control at 250 g/ha (Setaria faberi (SETFA) [5]): 0%
